The text below walks through data of patent US20210113733A1, “FIBROUS WOUND DRESSING COMPRISING AN ANTISEPTIC” (Coloplast A/S, priority 2018, published 2021).

The data set is described as follows: Octenidine extractable from impregnated hydrophilic polyurethane foam, no surfactant. Type of data set: physicochemical. Particulars: for Release % water: 24 h extraction in water, UV 285 nm. On the procedure: Discs of hydrophilic polyurethane foam were impregnated by applying a known volume of octenidine-containing solution to the surface of the foam and letting it soak into the foam matrix in a liquid:foam ratio which allowed the foam to be saturated with liquid. Afterwards, the impregnated foam was dried at RT overnight.
The dried foam disc was immersed in the extraction media for 24 h and the extracted octenidine concentration was determined by UV at 285 nm

As for `CCCCCCCCN=c1ccn(CCCCCCCCCCn2ccc(=NCCCCCCCC)cc2)cc1` [Octenidine, octenidine], the “Release % phosphate buffer (23 mM)” value (plain foam impregnated with 0.1 w % OCT solution, 24 h extraction) turned out to be 7%. The Release % water is, setting by setting: (plain foam impregnated with 0.1 w % OCT solution) 5%; (plain foam impregnated with 0.5 w % OCT solution) 1.5%; (plain foam impregnated with 1.0 w % OCT solution) 1.5%.
